Laboratory results reported in US11427548B2 (Arvinas Operations, Inc., priority 2015, dated 2022).
Read-outs that look alike come from different tables or passages of the source.

Biological target: T1, Androgen Receptor (Homo sapiens, UniProt P10275)
T1 construct: endogenous in cells; host or cells: VCaP cells
T1 sequence (P10275 1-920): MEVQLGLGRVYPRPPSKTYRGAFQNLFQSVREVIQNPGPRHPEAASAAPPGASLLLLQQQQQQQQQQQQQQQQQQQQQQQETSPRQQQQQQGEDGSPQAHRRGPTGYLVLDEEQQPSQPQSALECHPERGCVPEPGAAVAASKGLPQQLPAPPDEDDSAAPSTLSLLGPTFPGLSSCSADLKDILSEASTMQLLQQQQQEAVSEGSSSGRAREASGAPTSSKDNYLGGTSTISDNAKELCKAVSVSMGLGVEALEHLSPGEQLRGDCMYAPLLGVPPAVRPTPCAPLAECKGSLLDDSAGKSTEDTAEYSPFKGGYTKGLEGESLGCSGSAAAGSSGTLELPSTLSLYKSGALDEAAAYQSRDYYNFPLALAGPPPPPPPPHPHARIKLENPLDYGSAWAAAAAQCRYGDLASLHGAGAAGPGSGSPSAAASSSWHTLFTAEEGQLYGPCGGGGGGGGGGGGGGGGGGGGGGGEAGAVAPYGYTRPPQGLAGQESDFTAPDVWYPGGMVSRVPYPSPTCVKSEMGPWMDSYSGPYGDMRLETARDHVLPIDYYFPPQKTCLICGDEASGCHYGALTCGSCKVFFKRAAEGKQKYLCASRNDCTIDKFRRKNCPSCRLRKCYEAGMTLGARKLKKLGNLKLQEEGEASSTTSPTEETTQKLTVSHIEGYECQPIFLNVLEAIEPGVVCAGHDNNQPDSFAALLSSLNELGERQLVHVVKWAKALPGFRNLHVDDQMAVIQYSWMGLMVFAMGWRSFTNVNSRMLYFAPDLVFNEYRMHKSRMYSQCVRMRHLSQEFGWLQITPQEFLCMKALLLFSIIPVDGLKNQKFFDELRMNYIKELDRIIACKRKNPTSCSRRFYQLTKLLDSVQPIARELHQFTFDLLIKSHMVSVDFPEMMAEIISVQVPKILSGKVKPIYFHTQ
Assay: Androgen Receptor ELISA assay (PathScan AR ELISA) in VCaP cells: AR degradation, Dmax and DC50
Assay type: cell-based
Method in brief: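 VCaP cells, 30,000/well, grown ≥3 days in phenol red-free RPMI with 5% charcoal-stripped FBS; compound added in 0.1% DMSO with 0.1 nM R1881, 7 half-log doses, 24 h. Lysate AR quantified by PathScan sandwich ELISA, HRP/TMB read at 450 nm, giving DC50 and Dmax.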

[1] = VCaP cells; Table 35; read-out: VCaP DC50
[2] = VCaP, VCaP cells; Table 35; read-out: VCaP Dmax (%)

Compound | DC50 [1] [nM] | Dmax [2] [%] | Dmax (VCaP, read-out: VCaP Dmax (%)) [%] | DC50 (read-out: VCaP DC50; VCaP cells; Table 35) [nM]
CC(C)[C@H](NC(=O)COCCCCCNc1ccc(C(=O)N[C@H]2C(C)(C)[C@H](Oc3ccc(C#N)c(Cl)c3)C2(C)C)cc1)C(=O)N1C[C@H](O)C[C@H]1C(=O)NCc1ccc(C#N)cc1 [Example 520] | > 501 | 26 to 50 | – | –
CC(C)(C)[C@H](NC(=O)COCCCCCNc1ccc(C(=O)N[C@H]2C(C)(C)[C@H](Oc3ccc(C#N)c(Cl)c3)C2(C)C)cc1)C(=O)N1C[C@H](O)C[C@H]1C(=O)NCc1ccc(-c2scnc2C#N)cc1 [Example 521] | < 50 | 51 to 70 | – | –
COc1ccc(CNC(=O)[C@@H]2C[C@@H](O)CN2C(=O)[C@@H](NC(=O)COCCCCCNc2ccc(C(=O)N[C@H]3C(C)(C)[C@H](Oc4ccc(C#N)c(Cl)c4)C3(C)C)cc2)C(C)(C)C)cc1 [Example 522] | < 50 | 51 to 70 | – | –
CC(C)(C)[C@H](NC(=O)COCCCCCNc1ccc(C(=O)N[C@H]2C(C)(C)[C@H](Oc3ccc(C#N)c(Cl)c3)C2(C)C)cc1)C(=O)N1C[C@H](O)C[C@H]1C(=O)NCc1ccc(C#N)nc1 [Example 523] | < 50 | 51 to 70 | – | –
CC(C)(C)[C@H](NC(=O)COCCNc1ccc(-c2ccc(C(=O)N[C@H]3C(C)(C)[C@H](Oc4ccc(C#N)c(Cl)c4)C3(C)C)cc2)cc1)C(=O)N1C[C@H](O)C[C@H]1C(=O)NCc1ccc(C#N)cc1 [Example 524] | < 50 | 51 to 70 | – | –
Cc1ncsc1-c1ccc(CNC(=O)[C@@H]2C[C@@H](O)CN2C(=O)[C@@H](NC(=O)COCCN2CCC(c3ccc(C(=O)N[C@H]4C(C)(C)[C@H](Oc5ccc(C#N)c(Cl)c5)C4(C)C)cc3)CC2)C(C)(C)C)cc1 [Example 525] | > 501 | 51 to 70 | – | –
CC(C)(C)[C@H](NC(=O)COCCCCCNc1ccc(C(=O)N[C@H]2C(C)(C)[C@H](Oc3ccc(C#N)c(Cl)c3)C2(C)C)cc1)C(=O)N1C[C@H](O)C[C@H]1C(=O)NCc1ccc(-n2ccnn2)cc1 [Example 526] | < 50 | 51 to 70 | – | –
CC(C)(C)[C@H](NC(=O)COCCCCCNc1ccc(C(=O)N[C@H]2C(C)(C)[C@H](Oc3ccc(C#N)c(Cl)c3)C2(C)C)cc1)C(=O)N1C[C@H](O)C[C@H]1C(=O)NCc1ccc(-n2nccn2)cc1 [Example 527] | < 50 | 26 to 50 | – | –
CC(C)(C)[C@H](NC(=O)COCCCCCNc1ccc(C(=O)N[C@H]2C(C)(C)[C@H](Oc3ccc(C#N)c(Cl)c3)C2(C)C)cc1)C(=O)N1C[C@H](O)C[C@H]1C(=O)NCc1ccc(-c2nnc[nH]2)cc1 [Example 528] | < 50 | 51 to 70 | – | –
CC(C)(C)[C@H](NC(=O)COCCCCCNc1ccc(C(=O)N[C@H]2C(C)(C)[C@H](Oc3ccc(C#N)c(Cl)c3)C2(C)C)cc1)C(=O)N1C[C@H](O)C[C@H]1C(=O)NCc1ccc(-n2ccccc2=O)cc1 [Example 529] | < 50 | < 25 | – | –
CC(C)(C)[C@H](NC(=O)COCCCCCNc1ccc(C(=O)N[C@H]2C(C)(C)[C@H](Oc3ccc(C#N)c(Cl)c3)C2(C)C)cc1)C(=O)N1C[C@H](O)C[C@H]1C(=O)NCc1ccc(-n2cncn2)cc1 [Example 530] | < 50 | > 71 | – | –
CC(C)(C)[C@H](NC(=O)COCCCCCNc1ccc(C(=O)N[C@H]2C(C)(C)[C@H](Oc3ccc(C#N)c(Cl)c3)C2(C)C)cc1)C(=O)N1C[C@H](O)C[C@H]1C(=O)NCc1ccc(-c2cccnn2)cc1 [Example 531] | < 50 | 26 to 50 | – | –
CC(C)(C)[C@H](NC(=O)COCCCCCNc1ccc(C(=O)N[C@H]2C(C)(C)[C@H](Oc3ccc(C#N)c(Cl)c3)C2(C)C)cc1)C(=O)N1C[C@H](O)C[C@H]1C(=O)NCc1ccc(-c2cnccn2)cc1 [Example 532] | < 50 | 51 to 70 | – | –
CC(C)(C)[C@H](NC(=O)COCCCCCNc1ccc(C(=O)N[C@H]2C(C)(C)[C@H](Oc3ccc(C#N)c(Cl)c3)C2(C)C)cc1)C(=O)N1C[C@H](O)C[C@H]1C(=O)NCc1ccc(-c2ccncn2)cc1 [Example 533] | < 50 | 26 to 50 | – | –
CC(C)(C)[C@H](NC(=O)COCCCCCNc1ccc(C(=O)N[C@H]2C(C)(C)[C@H](Oc3ccc(C#N)c(Cl)c3)C2(C)C)cc1)C(=O)N1C[C@H](O)C[C@H]1C(=O)NCc1ccc(-c2cncnc2)cc1 [Example 534] | < 50 | 51 to 70 | – | –
CC(C)(C)[C@H](NC(=O)COCCCCCNc1ccc(C(=O)N[C@H]2C(C)(C)[C@H](Oc3ccc(C#N)c(Cl)c3)C2(C)C)cc1)C(=O)N1C[C@H](O)C[C@H]1C(=O)NCc1ccc(-c2ncccn2)cc1 [Example 535] | < 50 | 26 to 50 | – | –
CC(C)(C)[C@H](NC(=O)COCCCCCNc1ccc(C(=O)N[C@H]2C(C)(C)[C@H](Oc3ccc(C#N)c(Cl)c3)C2(C)C)cc1)C(=O)N1C[C@H](O)C[C@H]1C(=O)NCc1ccc(-c2ccccn2)cc1 [Example 536] | < 50 | 26 to 50 | – | –
Cc1ncsc1-c1ccc(CNC(=O)[C@@H]2C[C@@H](O)CN2C(=O)[C@@H](NC(=O)COCCCCCNc2ccc(C(=O)N[C@H]3C(C)(C)[C@H](Oc4ccc(C#N)c(Cl)c4)C3(C)C)cc2)C(C)C)cc1 [Example 537] | < 50 | 26 to 50 | – | –
Cc1ncsc1-c1ccc(CNC(=O)[C@@H]2C[C@@H](O)CN2C(=O)[C@@H](NC(=O)COCCCCCNc2ccc(C(=O)N[C@H]3C(C)(C)[C@H](Oc4ccc(C#N)c(Cl)c4)C3(C)C)cc2)C(C)(C)C)nc1 [Example 538] | > 501 | 51 to 70 | – | –
CC(C)(C)[C@H](NC(=O)COCCCCCNc1ccc(C(=O)N[C@H]2C(C)(C)[C@H](Oc3ccc(C#N)c(Cl)c3)C2(C)C)cc1)C(=O)N1C[C@H](O)C[C@H]1C(=O)NCc1ccc(C#N)cn1 [Example 539] | < 50 | 26 to 50 | – | –
CC(C)(C)[C@H](NC(=O)COCCNc1ccc(-c2ccc(C(=O)N[C@H]3C(C)(C)[C@H](Oc4ccc(C#N)c(Cl)c4)C3(C)C)cc2)cn1)C(=O)N1C[C@H](O)C[C@H]1C(=O)NCc1ccc(C#N)cc1 [Example 540] | < 50 | > 71 | – | –
C[C@H](NC(=O)[C@@H]1C[C@@H](O)CN1C(=O)[C@@H](NC(=O)COCCCCCNc1ccc(C(=O)N[C@H]2C(C)(C)[C@H](Oc3ccc(C#N)c(Cl)c3)C2(C)C)cc1)C(C)(C)C)c1ccc(C#N)cc1 [Example 541] | < 50 | > 71 | – | –
CC(C)(C)[C@H](NC(=O)COCCCCCNc1ccc(C(=O)N[C@H]2C(C)(C)[C@H](Oc3ccc(C#N)c(Cl)c3)C2(C)C)cc1)C(=O)N1C[C@H](O)C[C@H]1C(=O)NCc1ccc(C#N)cc1 [Example 542] | < 50 | > 71 | – | –
Cc1ncsc1-c1ccc(CNC(=O)[C@@H]2C[C@@H](O)CN2C(=O)[C@@H](NC(=O)COCCOc2ccc(-c3c(F)cc(C(=O)N[C@H]4C(C)(C)[C@H](Oc5ccc(C#N)c(Cl)c5)C4(C)C)cc3F)cc2)C(C)(C)C)cc1 [Example 543] | < 50 | > 71 | – | –
Cc1ncsc1-c1ccc(CNC(=O)[C@@H]2C[C@@H](O)CN2C(=O)[C@@H](NC(=O)COCCN2CCN(c3ccc(C(=O)N[C@H]4C(C)(C)[C@H](Oc5ccc(C#N)c(Cl)c5)C4(C)C)cc3)CC2)C(C)(C)C)cc1 [Example 544] | < 50 | > 71 | – | –
Cc1ncsc1-c1ccc(CNC(=O)[C@@H]2C[C@@H](O)CN2C(=O)[C@@H](NC(=O)COCCCCOc2ccc(-c3ccc(N4C(=S)N(c5ccc(C#N)c(C(F)(F)F)c5)C(=O)C4(C)C)cc3)cc2)C(C)(C)C(=O)OC(C)(C)C)cc1 [Example 545] | – | – | 51 to 70 | < 50
